Results published in US12012413B2, “Methods of treating painful diabetic peripheral neuropathy” (Tenacia Biotechnology (Hong Kong) Co., Limited, priority 2019, dated 2024).
≈ marks a conversion by molar mass, not a printed value. Read-outs that look alike come from different tables or passages of the source.

What was measured:
Format in all cases: physicochemical
[1] = Approximate solubility by stepwise dilution in solvents and solvent mixtures; settings: 22 °C, about 22° C., read-out: Solubility S
Description: Approximate solubilities were determined by a stepwise dilution of a suspension of about 10 mg of substance in 0.05 mL of solvent. If the substance was not dissolved by addition of a total of at least 10 ml solvent, the solubility was indicated as <1 mg/mL. For all experiments, analytical grade solvents were used.
The approximate solubility of crystalline, monohydrate Form MH of NYX-2925 across a range of solvents and solvent mixtures (expressed in volume ratios measured at about 22° C.) is provided in Table 8, below.

[2] = Solubility and stability of saturated solutions in pH 2-8 buffers at 25° C. (HPLC); settings: for solubility at 1 day / solubility at 4 days / solubility at 7 days: ca. 25° C., read-out: solubility in an aqueous solvent; for solubility at 1 day: after about 1 day; for solubility at 4 days: after about 4 days; for solubility at 7 days: after about 7 days
Description: Crystalline, monohydrate Form MH of (2S,3R)-3-hydroxy-2-((R)-5-isobutyryl-1-oxo-2,5-diazaspiro[3.4]octan-2-yl)butanamide was prepared as follows. Saturated solutions of 3-hydroxy-2-(5-isobutyryl-1-oxo-2,5-diazaspiro[3.4]octan-2-yl)butanamide were prepared in pH 2, pH 3, pH 5, pH 7, and pH 8 buffers and were stirred at 25° C. Aliquots were taken after 1 day, 4 days, and 7 days and centrifuged at 12,500 rpm for 15 minutes. The supernatant was analyzed for sample concentration by HPLC, and the residual solids were analyzed by XRPD after 1 day, 4 days, and 7 days.

[3] = Dynamic vapor sorption (DVS) profile
Description: FIG. 4 depicts the dynamic sorption vapor (DVS) profile of crystalline, monohydrate Form MH of NYX-2925. […] This is a fully reversible process and the sample loses this water when decreasing the relative humidity with a negligible hysteresis. At low relative humidity there is the release and uptake of about 5.5 wt. % in the range of about 0% to about 15% relative humidity with about 10% relative humidity hysteresis. The monohydrate Form MH of NYX-2925 retains about 5.7 weight % water content, corresponding to the stoichiometric water content of the, monohydrate, over the range of about 10% to about 80% relative humidity with less than 0.5 wt. % change. There is minimal water uptake above 80% relative humidity and about 1 weight % gain in the 90% to 95% relative humidity range.

[4] = Solid form conversion / physical stability (XRPD); settings: ambient conditions of temperature and humidity; versus anhydrous Forms A, B, and C
Description: X-ray powder diffraction (XRPD) analysis was carried out on a Stoe Stadi P with Mythen1K detector; Cu-Kα1 radiation; 40 kV and 40 mA tube power; curved Ge monochromator; 0.02° 2θ step size, 12 s step time, 1.5-50.5° 2θ scanning range; detector mode: step scan; 1° 2θ detector step. The sample (about 20 mg) was placed between two acetate foils and clamped in a Stoe transmission sample holder. The sample holder was rotated during the measurement.
X-ray powder diffraction (XRPD) analysis was also carried out on a on a Bruker D8 Advance; Cu-Kα radiation; standard measurement conditions: Bragg-Brentano reflection geometry; 40 kV and 40 mA tube power; LynxEye detector; 0.02° 2θ step size, 37 s step time, 2.5-50.5° 2θ scanning range (about 10 min measurement time. The sample was spread on a silicon single crystal substrate without cavity and flattened to fit to the 0.1 mm depth of the sample holder.
Crystalline, anhydrous Form C material of 3-hydroxy-2-(5-isobutyryl-1-oxo-2,5-diazaspiro[3.4]octan-2-yl)butanamide is not stable in comparison to anhydrous Form A or anhydrous Form B under ambient conditions of temperature and humidity. […] In turn, anhydrous Form A and anhydrous Form B each convert to monohydrate Form MH under the conditions described above.

[5] = Stability of monohydrate drug substance and oral capsules on storage
Description: NYX-2925 monohydrate drug product was formulated with the pharmaceutically acceptable excipients: microcrystalline cellulose, starch, and magnesium stearate.

[6] = aqueous buffer, pH 2, aqueous buffer, thermodynamic from solid, pH of about 2
[7] = aqueous buffer, pH 3, aqueous buffer, thermodynamic from solid, pH of about 3
[8] = aqueous buffer, pH 5, aqueous buffer, thermodynamic from solid, pH of about 5
[9] = aqueous buffer, pH 7, aqueous buffer, thermodynamic from solid, pH of about 7
[10] = aqueous buffer, pH 8, aqueous buffer, thermodynamic from solid, pH of about 8

## CC(C)C(=O)N1CCC[C@]12CN([C@H](C(N)=O)[C@@H](C)O)C2=O [Form MH, (2S,3R)-3-hydroxy-2-((R)-5-isobutyryl-1-oxo-2,5-diazaspiro[3.4]octan-2-yl)butanamide]
[1]; 1,4-dioxane, organic solvent or mixture, thermodynamic from solid, 1,4-dioxane
  solubility: 28 to 31 mg/mL (≈ 94.2 to 104 mM)
[1]; 1/1 dichloromethane/methanol (v/v), organic solvent or mixture, thermodynamic from solid, 1/1 dichloromethane/methanol (volume ratio)
  solubility: > 200 mg/mL
[1]; 1/1 ethanol/water (v/v), aqueous with cosolvent or surfactant or cyclodextrin, thermodynamic from solid, 1/1 ethanol/water (volume ratio)
  solubility: 69 to 103 mg/mL
[1]; 1/1 isopropanol/water (v/v), aqueous with cosolvent or surfactant or cyclodextrin, thermodynamic from solid, 1/1 isopropanol/water (volume ratio)
  solubility: 71 to 107 mg/mL
[1]; 1/1 methanol/water (v/v), aqueous with cosolvent or surfactant or cyclodextrin, thermodynamic from solid, 1/1 methanol/water (volume ratio)
  solubility: > 200 mg/mL
[1]; 10/1 ethyl acetate/ethanol (v/v), organic solvent or mixture, thermodynamic from solid, 10/1 ethyl acetate/ethanol (volume ratio)
  solubility: 32 to 39 mg/mL
[1]; 10/1 isopropanol/water (v/v), organic solvent or mixture, thermodynamic from solid, 10/1 isopropanol/water (volume ratio)
  solubility: 36 to 41 mg/mL
[1]; acetone, organic solvent or mixture, thermodynamic from solid, acetone
  solubility: 57 to 76 mg/mL (≈ 192 to 256 mM)
[1]; acetonitrile, organic solvent or mixture, thermodynamic from solid, acetonitrile
  solubility: 118 to 230 mg/mL (≈ 397 to 773 mM)
[1]; aniline, organic solvent or mixture, thermodynamic from solid, aniline
  solubility: > 200 mg/mL
[1]; anisole, organic solvent or mixture, thermodynamic from solid, anisole
  solubility: ~3 mg/mL (≈ 10.1 mM)
[1]; cyclohexane, organic solvent or mixture, thermodynamic from solid, cyclohexane
  solubility: ~1 mg/mL (≈ 3.36 mM)
[1]; dichloromethane, organic solvent or mixture, thermodynamic from solid, dichloromethane
  solubility: 55 to 73 mg/mL (≈ 185 to 245 mM)
[1]; diisopropyl ether, organic solvent or mixture, thermodynamic from solid, diisopropyl ether
  solubility: < 1 mg/mL
[1]; dimethyl sulfoxide, organic solvent or mixture, thermodynamic from solid, dimethyl sulfoxide
  solubility: > 200 mg/mL
[1]; dimethylformamide, organic solvent or mixture, thermodynamic from solid, dimethylformamide
  solubility: > 200 mg/mL
[1]; ethanol, organic solvent or mixture, thermodynamic from solid, ethanol
  solubility: > 200 mg/mL
[1]; ethyl acetate saturated with water, organic solvent or mixture, thermodynamic from solid, ethyl acetate saturated with water
  solubility: 6 to 8 mg/mL (≈ 20.2 to 26.9 mM)
[1]; ethyl acetate, organic solvent or mixture, thermodynamic from solid, ethyl acetate
  solubility: 13 to 15 mg/mL (≈ 43.7 to 50.4 mM)
[1]; heptane, organic solvent or mixture, thermodynamic from solid, heptane
  solubility: < 1 mg/mL
[1]; isopropanol, organic solvent or mixture, thermodynamic from solid, isopropanol
  solubility: 45 to 60 mg/mL (≈ 151 to 202 mM)
[1]; isopropyl acetate, organic solvent or mixture, thermodynamic from solid, isopropyl acetate
  solubility: 5 to 6 mg/mL (≈ 16.8 to 20.2 mM)
[1]; methanol, organic solvent or mixture, thermodynamic from solid, methanol
  solubility: > 200 mg/mL
[1]; methyl ethyl ketone, organic solvent or mixture, thermodynamic from solid, methyl ethyl ketone
  solubility: 32 to 38 mg/mL (≈ 108 to 128 mM)
[1]; tert-butyl methyl ether saturated with water, organic solvent or mixture, thermodynamic from solid, tert-butyl methyl ether saturated with water
  solubility: < 1 mg/mL
[1]; tert-butyl methyl ether, organic solvent or mixture, thermodynamic from solid, tert-butyl methyl ether
  solubility: < 1 mg/mL
[1]; tetrahydrofuran, organic solvent or mixture, thermodynamic from solid, tetrahydrofuran
  solubility: 31 to 36 mg/mL (≈ 104 to 121 mM)
[1]; toluene, organic solvent or mixture, thermodynamic from solid, toluene
  solubility: < 1 mg/mL
[1]; triethylamine, organic solvent or mixture, thermodynamic from solid, triethylamine
  solubility: < 1 mg/mL
[1]; water, water, thermodynamic from solid, water
  solubility: 26 to 30 mg/mL (≈ 87.4 to 101 mM)
[2]; [6]
  solubility at 1 day: ~54.1 mg/mL (≈ 182 mM)
  solubility at 4 days: ~53.5 mg/mL (≈ 180 mM)
  solubility at 7 days: ~53.5 mg/mL (≈ 180 mM)
[2]; [7]
  solubility at 1 day: ~54.2 mg/mL (≈ 182 mM)
  solubility at 4 days: ~53.2 mg/mL (≈ 179 mM)
  solubility at 7 days: ~52.4 mg/mL (≈ 176 mM)
[2]; [8]
  solubility at 1 day: ~52.5 mg/mL (≈ 177 mM)
  solubility at 4 days: ~53.2 mg/mL (≈ 179 mM)
  solubility at 7 days: ~52.4 mg/mL (≈ 176 mM)
[2]; [9]
  solubility at 1 day: ~52.6 mg/mL (≈ 177 mM)
  solubility at 4 days: ~53 mg/mL (≈ 178 mM)
  solubility at 7 days: ~52.3 mg/mL (≈ 176 mM)
[2]; [10]
  solubility at 1 day: ~52.7 mg/mL (≈ 177 mM)
  solubility at 4 days: ~51.6 mg/mL (≈ 174 mM)
  solubility at 7 days: ~52.6 mg/mL (≈ 177 mM)
[2]; pH 2, pH 3, pH 5, pH 7 and pH 8 buffers, aqueous buffer, thermodynamic from solid, pH ranges of 2-8, 25° C., after 7 days, read-out: saturated concentration in buffers
  solubility thermodynamic at 7 days: ~50 mg/mL (≈ 168 mM)
[2]; pH ranges of 2-8, 25° C., after 7 days
  stability in saturated buffer solutions (HPLC analysis): stable
[3]; 90% to 95% relative humidity range
  DVS weight gain: about 1 weight %
[3]; about 0% to about 15% relative humidity, about 10% RH hysteresis
  DVS release and uptake of water (reversible weight loss): about 5.5 wt. %
[3]; about 10% to about 80% relative humidity
  DVS water content retained: about 5.7 weight %
[3]; from about 50% to about 95% relative humidity, mainly above 90%
  DVS continuous reversible uptake of water: about 1.5 wt. %
[3]; over about 10% to about 80% relative humidity
  DVS change in water content: less than 0.5 wt. %
[4]
  relative stability of crystalline forms: more stable
[5]; 6 months at 40° C./75% relative humidity
  changes in impurity profile or other quality attributes (appearance, assay, water content, microbial examination, XRPD): no significant changes
[5]; 12 months at 25° C./60% relative humidity
  changes in impurity profile or other quality attributes (appearance, assay, water content, microbial examination, XRPD): no significant changes
